In assay [1] the target is T1, Cholecystokinin receptor type A (Homo sapiens, UniProt P32238).
T1 sequence (P32238 whole entry): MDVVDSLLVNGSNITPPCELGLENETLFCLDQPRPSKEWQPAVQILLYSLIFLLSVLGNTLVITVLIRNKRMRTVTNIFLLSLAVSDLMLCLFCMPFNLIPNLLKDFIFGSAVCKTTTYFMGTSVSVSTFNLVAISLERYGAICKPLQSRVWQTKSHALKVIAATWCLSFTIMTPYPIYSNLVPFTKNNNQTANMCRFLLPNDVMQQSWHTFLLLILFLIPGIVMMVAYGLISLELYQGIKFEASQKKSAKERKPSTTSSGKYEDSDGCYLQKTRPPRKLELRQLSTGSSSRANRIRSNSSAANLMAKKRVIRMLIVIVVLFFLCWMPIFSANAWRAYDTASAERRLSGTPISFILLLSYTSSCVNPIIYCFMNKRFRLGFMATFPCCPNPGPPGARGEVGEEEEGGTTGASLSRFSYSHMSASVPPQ

Assay [2] concerns the target T2, Equilibrative nucleoside transporter 1 (Homo sapiens, UniProt Q99808).
T2 sequence (Q99808 whole entry): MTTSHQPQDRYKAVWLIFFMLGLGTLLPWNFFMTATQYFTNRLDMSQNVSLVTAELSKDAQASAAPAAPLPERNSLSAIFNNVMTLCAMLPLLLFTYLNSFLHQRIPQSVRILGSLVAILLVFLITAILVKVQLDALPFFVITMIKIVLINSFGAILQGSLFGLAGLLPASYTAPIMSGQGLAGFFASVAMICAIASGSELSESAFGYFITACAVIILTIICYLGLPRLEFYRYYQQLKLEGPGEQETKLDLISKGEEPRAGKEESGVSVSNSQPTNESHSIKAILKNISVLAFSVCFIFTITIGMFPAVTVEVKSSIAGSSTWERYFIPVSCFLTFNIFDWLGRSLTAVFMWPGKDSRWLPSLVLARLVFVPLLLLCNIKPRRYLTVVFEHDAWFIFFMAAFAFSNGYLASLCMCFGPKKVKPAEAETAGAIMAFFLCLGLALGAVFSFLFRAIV

The target of assay [3] is Sodium-dependent dopamine transporter (Homo sapiens, UniProt Q01959).
Assay [4] concerns the target Beta-2 adrenergic receptor (Homo sapiens, UniProt P07550).
Assay [5] concerns the target Kappa-type opioid receptor (Homo sapiens, UniProt P41145).
Assay [6] addresses 5-hydroxytryptamine receptor 2B (Homo sapiens, UniProt P41595). The assay is classed as functional, cell-based.
Assay [7] has as its target Delta-type opioid receptor (Homo sapiens, UniProt P41143).
Assay [8] addresses T3, Alpha-2A adrenergic receptor (Homo sapiens, UniProt P08913).
T3 sequence (P08913 whole entry): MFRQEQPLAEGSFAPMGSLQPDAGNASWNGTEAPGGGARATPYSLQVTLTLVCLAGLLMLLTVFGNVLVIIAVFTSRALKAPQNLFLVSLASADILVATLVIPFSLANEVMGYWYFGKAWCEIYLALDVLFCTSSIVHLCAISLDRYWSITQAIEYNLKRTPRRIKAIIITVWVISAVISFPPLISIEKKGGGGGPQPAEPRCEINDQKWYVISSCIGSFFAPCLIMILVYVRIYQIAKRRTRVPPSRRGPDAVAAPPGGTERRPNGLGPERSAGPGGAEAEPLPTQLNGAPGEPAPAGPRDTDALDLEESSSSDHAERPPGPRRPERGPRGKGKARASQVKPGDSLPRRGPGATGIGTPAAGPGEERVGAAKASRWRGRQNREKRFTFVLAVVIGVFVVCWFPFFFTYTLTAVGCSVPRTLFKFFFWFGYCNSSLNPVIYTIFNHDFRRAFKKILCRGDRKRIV
The assay is classed as functional, cell-based.

Assay [9] concerns the target T4, Neuropeptide Y receptor type 1 (Homo sapiens, UniProt P25929).
T4 sequence (P25929 whole entry): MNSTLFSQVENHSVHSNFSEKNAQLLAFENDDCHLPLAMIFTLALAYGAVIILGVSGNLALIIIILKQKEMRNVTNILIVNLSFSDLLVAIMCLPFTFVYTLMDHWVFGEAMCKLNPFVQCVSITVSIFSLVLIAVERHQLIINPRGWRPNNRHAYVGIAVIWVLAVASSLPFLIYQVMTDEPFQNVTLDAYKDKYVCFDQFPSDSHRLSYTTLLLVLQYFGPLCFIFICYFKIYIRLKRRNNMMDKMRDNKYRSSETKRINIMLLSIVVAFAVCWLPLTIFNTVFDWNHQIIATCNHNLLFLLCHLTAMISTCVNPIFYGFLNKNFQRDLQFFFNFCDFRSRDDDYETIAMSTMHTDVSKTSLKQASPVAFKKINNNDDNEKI

Assay [10] deals with Motilin receptor (Homo sapiens, UniProt O43193).
Further: assay procedure not described here.

Chain of 5-hydroxytryptamine receptor 2B (P41595 whole entry): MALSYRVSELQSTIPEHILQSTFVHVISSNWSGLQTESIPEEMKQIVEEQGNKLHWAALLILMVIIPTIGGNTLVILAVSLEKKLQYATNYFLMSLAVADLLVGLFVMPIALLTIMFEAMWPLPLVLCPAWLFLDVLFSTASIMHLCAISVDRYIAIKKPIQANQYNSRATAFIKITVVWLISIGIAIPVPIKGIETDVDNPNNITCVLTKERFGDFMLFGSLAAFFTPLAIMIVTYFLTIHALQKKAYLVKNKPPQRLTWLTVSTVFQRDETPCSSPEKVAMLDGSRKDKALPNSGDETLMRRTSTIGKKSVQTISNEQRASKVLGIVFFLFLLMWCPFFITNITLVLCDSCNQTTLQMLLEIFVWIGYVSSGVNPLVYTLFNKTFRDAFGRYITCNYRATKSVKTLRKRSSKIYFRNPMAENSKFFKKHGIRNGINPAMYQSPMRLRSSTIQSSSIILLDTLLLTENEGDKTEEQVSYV
Chain of Delta-type opioid receptor (P41143 whole entry): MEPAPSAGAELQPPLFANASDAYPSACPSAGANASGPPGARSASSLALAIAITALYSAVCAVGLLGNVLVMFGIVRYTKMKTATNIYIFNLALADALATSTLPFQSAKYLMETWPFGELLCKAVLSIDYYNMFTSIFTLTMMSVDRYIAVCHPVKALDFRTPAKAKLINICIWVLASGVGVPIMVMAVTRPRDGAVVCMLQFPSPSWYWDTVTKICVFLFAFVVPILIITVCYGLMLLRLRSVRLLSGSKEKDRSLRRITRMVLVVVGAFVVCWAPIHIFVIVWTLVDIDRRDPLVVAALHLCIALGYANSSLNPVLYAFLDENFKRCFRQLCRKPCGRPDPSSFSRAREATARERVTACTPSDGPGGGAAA
Chain of Sodium-dependent dopamine transporter (Q01959 whole entry): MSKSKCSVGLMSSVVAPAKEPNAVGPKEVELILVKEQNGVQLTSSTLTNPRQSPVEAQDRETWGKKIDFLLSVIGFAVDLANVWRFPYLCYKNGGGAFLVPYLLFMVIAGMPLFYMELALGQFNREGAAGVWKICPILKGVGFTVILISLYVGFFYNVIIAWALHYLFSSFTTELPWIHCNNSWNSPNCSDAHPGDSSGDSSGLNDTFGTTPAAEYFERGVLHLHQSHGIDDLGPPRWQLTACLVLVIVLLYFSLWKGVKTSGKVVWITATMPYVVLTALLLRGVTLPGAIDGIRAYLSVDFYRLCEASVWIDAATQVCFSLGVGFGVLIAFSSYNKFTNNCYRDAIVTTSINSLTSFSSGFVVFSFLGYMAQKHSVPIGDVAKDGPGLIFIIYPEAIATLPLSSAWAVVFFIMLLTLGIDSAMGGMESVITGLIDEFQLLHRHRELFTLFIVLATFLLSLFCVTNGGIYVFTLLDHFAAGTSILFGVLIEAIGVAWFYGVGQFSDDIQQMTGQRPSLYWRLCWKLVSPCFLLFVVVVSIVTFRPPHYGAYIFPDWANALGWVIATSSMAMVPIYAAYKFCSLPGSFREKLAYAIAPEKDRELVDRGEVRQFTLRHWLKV
Chain of Kappa-type opioid receptor (P41145 whole entry): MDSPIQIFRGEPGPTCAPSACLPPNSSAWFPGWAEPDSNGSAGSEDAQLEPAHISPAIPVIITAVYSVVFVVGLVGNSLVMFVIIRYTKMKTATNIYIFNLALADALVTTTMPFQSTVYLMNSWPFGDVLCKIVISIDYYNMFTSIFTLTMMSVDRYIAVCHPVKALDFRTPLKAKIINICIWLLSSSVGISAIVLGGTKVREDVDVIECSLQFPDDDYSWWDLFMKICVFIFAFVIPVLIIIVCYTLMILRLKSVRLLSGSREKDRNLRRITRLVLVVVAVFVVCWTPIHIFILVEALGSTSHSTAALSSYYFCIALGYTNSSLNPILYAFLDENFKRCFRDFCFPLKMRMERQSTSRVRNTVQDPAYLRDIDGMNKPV
Chain of Motilin receptor (O43193 whole entry): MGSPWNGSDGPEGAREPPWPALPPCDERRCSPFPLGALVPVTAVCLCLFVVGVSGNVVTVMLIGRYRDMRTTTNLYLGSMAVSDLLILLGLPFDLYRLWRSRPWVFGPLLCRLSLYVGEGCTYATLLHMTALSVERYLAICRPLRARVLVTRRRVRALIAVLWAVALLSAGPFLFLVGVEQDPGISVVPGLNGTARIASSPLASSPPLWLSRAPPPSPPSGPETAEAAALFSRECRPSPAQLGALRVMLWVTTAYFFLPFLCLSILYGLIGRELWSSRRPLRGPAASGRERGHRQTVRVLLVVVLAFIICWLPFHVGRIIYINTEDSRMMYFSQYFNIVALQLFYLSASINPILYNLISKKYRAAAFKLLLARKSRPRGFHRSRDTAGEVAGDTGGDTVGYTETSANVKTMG
Chain of Beta-2 adrenergic receptor (P07550 whole entry): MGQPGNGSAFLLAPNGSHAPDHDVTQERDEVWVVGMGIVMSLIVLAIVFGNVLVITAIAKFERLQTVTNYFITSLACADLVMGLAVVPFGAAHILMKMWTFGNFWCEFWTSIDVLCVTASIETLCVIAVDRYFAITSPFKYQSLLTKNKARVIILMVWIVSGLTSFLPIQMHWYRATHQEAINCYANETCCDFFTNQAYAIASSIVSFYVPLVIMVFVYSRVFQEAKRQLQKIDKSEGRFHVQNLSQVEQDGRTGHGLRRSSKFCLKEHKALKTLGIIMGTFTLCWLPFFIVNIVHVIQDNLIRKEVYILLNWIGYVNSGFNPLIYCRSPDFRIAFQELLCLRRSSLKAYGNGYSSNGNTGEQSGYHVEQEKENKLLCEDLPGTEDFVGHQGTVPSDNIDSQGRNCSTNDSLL

For orientation: AC50 means the concentration at which the activity in the assay is half-maximal. A lower AC50 goes with greater potency. Consider `CC(=O)c1ccc(S(=O)(=O)NC(=O)NC2CCCCC2)cc1` [ACETOHEXAMIDE], for which the AC50 is more than 10 µM in assay [1]; more than 10 µM in assay [2]; more than 10 µM in [3]; more than 10 µM in [4]; more than 10 µM in assay [5]; more than 30 µM in assay [6]. Also, the AC50 in assay [7] was more than 30 µM; in assay [8], more than 30 µM; in assay [9], more than 10 µM; in [10], more than 10 µM.

With `COc1cc(C)c(/C=C/C(C)=C/C=C/C(C)=C/C(=O)O)c(C)c1C` [ACITRETIN], the AC50 in [1], in [2], in [3], in assay [4], in assay [5] and in [6] was more than 10 µM throughout. For the same compound, the half-maximal activity concentration (AC50) is more than 30 µM in assay [7], more than 10 µM in [8], more than 10 µM in [9] and more than 10 µM in assay [10].

Regarding `CCC1(CCC(C)C)C(=O)NC(=O)NC1=O` [AMOBARBITAL], the half-maximal activity concentration (AC50) in assay [1], in assay [2], in assay [3], in [4], in assay [5] and in assay [6] was more than 10 µM in each case. Also, the half-maximal activity concentration (AC50) in assay [7] is more than 30 µM; in assay [8], more than 10 µM; in assay [9], more than 10 µM; in [10], more than 10 µM.

Take `COc1ccc(C2C(=O)c3ccccc3C2=O)cc1` [ANISINDIONE]: the AC50 in assay [1], in assay [2], in assay [3], in [4], in assay [5] and in [6] was more than 10 µM each time. In addition, the AC50 in assay [7] was more than 30 µM; in assay [8] it was more than 10 µM; in [9] it was more than 10 µM; in assay [10], more than 10 µM.

`O=C(O)c1ccc(NC(=O)[C@H](Cc2ccc(O)cc2)NC(=O)c2ccccc2)cc1` [BENTIROMIDE]: the AC50 in assay [1], in [2], in assay [3], in [4], in assay [5] and in assay [6] was more than 10 µM in each case. The AC50 was more than 30 µM in assay [7], more than 10 µM in assay [8], more than 10 µM in assay [9] and more than 10 µM in assay [10].

For `NS(=O)(=O)c1cc2c(cc1Cl)N=C(CSCc1ccccc1)NS2(=O)=O` [BENZTHIAZIDE], the AC50 in assay [1], in assay [2], in assay [3], in assay [4], in [5] and in assay [6] was more than 10 µM in each case. Moreover, the AC50 is more than 30 µM in assay [7], more than 10 µM in assay [8], more than 10 µM in assay [9] and more than 10 µM in assay [10].

As for `CC(C)[C@@H](C)/C=C/[C@@H](C)[C@H]1CC[C@H]2/C(=C/C=C3\C[C@@H](O)CC[C@@H]3C)CCC[C@]12C` [DIHYDROTACHYSTEROL], the AC50 in [1], in [2], in assay [3], in assay [4], in assay [5] and in [6] was more than 10 µM each time. Moreover, the half-maximal activity concentration (AC50) in [7] is more than 30 µM; in [8], more than 10 µM; in [9], more than 10 µM; in [10] it was more than 10 µM.

For the compound `CC(=O)[C@H]1CC[C@H]2[C@@H]3C[C@H](C)C4=CC(=O)CC[C@]4(C)[C@H]3[C@@H](O)C[C@]12C` [MEDRYSONE], the AC50 in assay [1], in assay [2], in assay [3], in assay [4], in [5] and in [6] was more than 10 µM in each case. In addition, the AC50 in [7] is more than 30 µM; in assay [8], more than 10 µM; in assay [9], more than 10 µM; in assay [10], more than 10 µM.

Regarding `CCCC(C)(COC(N)=O)COC(N)=O` [MEPROBAMATE], the AC50 in assay [1], in assay [2], in assay [3], in assay [4], in assay [5] and in [6] was more than 10 µM in each case. Also, the AC50 is more than 30 µM in [7], more than 10 µM in assay [8], more than 10 µM in assay [9] and more than 10 µM in [10].

Consider `COc1ccc2cc(CCC(C)=O)ccc2c1` [NABUMETONE], for which the AC50 in assay [1] is more than 10 µM; in [2] it was more than 30 µM; in assay [3], 7.8 µM; in assay [4] it was more than 10 µM; in assay [5] it was more than 10 µM; in assay [6], more than 10 µM. Moreover, the AC50 in assay [7] was more than 30 µM; in assay [8], more than 10 µM; in [9] it was more than 10 µM; in assay [10], more than 10 µM.

Consider `O=C(c1cc(Cc2n[nH]c(=O)c3ccccc23)ccc1F)N1CCN(C(=O)C2CC2)CC1` [OLAPARIB], for which the AC50 was more than 30 µM in assay [1]; more than 30 µM in assay [2]; more than 30 µM in assay [3]; more than 30 µM in assay [4]; more than 10 µM in assay [5]; more than 10 µM in [6]. Further, the AC50 was more than 30 µM in assay [7], more than 10 µM in assay [8], more than 30 µM in assay [9] and more than 30 µM in assay [10].

In the case of `CO[C@H]1C[C@H](O[C@H]2CC[C@@]3(C)[C@H](CC[C@@H]4[C@@H]3CC[C@]3(C)[C@@H](C5=CC(=O)OC5)[C@@H](OC(C)=O)C[C@]43O)C2)O[C@@H](C)[C@@H]1O` [OLEANDRIN], the AC50 in assay [5], in assay [7] and in [8] was more than 30 µM in each case.

On to `NC(=O)NC(=O)Cc1ccccc1` [PHENACEMIDE], for which the AC50 in assay [1], in assay [2], in assay [3], in assay [4], in [5] and in assay [6] was more than 10 µM in each case. In addition, the half-maximal activity concentration (AC50) in assay [7] is more than 30 µM; in [8], more than 10 µM; in assay [9], more than 10 µM; in assay [10], more than 10 µM.

Regarding `CC1=C(/C=C/C(C)=C/C=C/C(C)=C/CO)C(C)(C)CCC1` [RETINOL], the AC50 in assay [1] was more than 10 µM; in [2], more than 10 µM; in [3], more than 10 µM; in assay [4], more than 10 µM; in assay [6], more than 10 µM; in assay [7], more than 30 µM. The AC50 in [8], in assay [9] and in assay [10] was more than 10 µM each time.

With `CCCCCCCC(=O)CC[C@@H]1[C@@H](C/C=C\CCCC(=O)OC(C)C)[C@@H](O)C[C@H]1O` [UNOPROSTONE ISOPROPYL], the AC50 was 7.2 µM in assay [3], more than 30 µM in [6] and more than 30 µM in [7].

The record behind these values is ChEMBL document CHEMBL5291721, “A preclinical secondary pharmacology resource illuminates target-adverse drug reaction associations of marketed drugs” (Nat Commun, 2023).
